ChEMBL document CHEMBL1139682, “Synthesis and biological evaluation of technetium-99m-labeled deoxyglucose derivatives as imaging agents for tumor” (Bioorg Med Chem Lett, 2006)

Assays:
[1] = Biodistribution in kidney of TA2 mouse bearing MA891 xenograft after 4 hrs; assay type: ADME, organism-based; conditions: read-out: Drug uptake
[2] = Biodistribution in blood of TA2 mouse bearing MA891 xenograft after 4 hrs; assay type: ADME, organism-based; conditions: read-out: Drug uptake
[3] = Biodistribution in stomach of TA2 mouse bearing MA891 xenograft after 30 mins; assay type: ADME, organism-based; conditions: read-out: Drug uptake
[4] = Biodistribution in spleen of TA2 mouse bearing MA891 xenograft after 30 mins; assay type: ADME, organism-based; conditions: read-out: Drug uptake
[5] = Ratio of uptake in tumor to muscle of TA2 mouse bearing MA891 xenograft after 30 mins; assay type: ADME; conditions: in vivo, 0.5 h
[6] = Biodistribution in heart of TA2 mouse bearing MA891 xenograft after 2 hrs; assay type: ADME, organism-based; conditions: read-out: Drug uptake
[7] = Biodistribution in heart of TA2 mouse bearing MA891 xenograft after 30 mins; assay type: ADME, organism-based; conditions: read-out: Drug uptake
[8] = Biodistribution in lung of TA2 mouse bearing MA891 xenograft after 2 hrs; assay type: ADME, organism-based; conditions: read-out: Drug uptake
[9] = Biodistribution in muscle of TA2 mouse bearing MA891 xenograft after 4 hrs; assay type: ADME, organism-based, Muscle tissue; conditions: read-out: Drug uptake
[10] = Biodistribution in intestine of TA2 mouse bearing MA891 xenograft after 4 hrs; assay type: ADME, organism-based; conditions: read-out: Drug uptake
[11] = Ratio of uptake in tumor to […] of TA2 mouse bearing MA891 xenograft after 30 mins; assay type: ADME; conditions: in vivo, 0.5 h
[12] = Biodistribution in intestine of TA2 mouse bearing MA891 xenograft after 30 mins; assay type: ADME, organism-based; conditions: read-out: Drug uptake
[13] = Biodistribution in muscle of TA2 mouse bearing MA891 xenograft after 2 hrs; assay type: ADME, organism-based, Muscle tissue; conditions: read-out: Drug uptake
[14] = Partition coefficient, log P of the compound; assay type: physicochemical; conditions: octanol/water
[15] = Ratio of uptake in tumor to muscle of TA2 mouse bearing MA891 xenograft after 4 hrs; assay type: ADME; conditions: in vivo
[16] = Biodistribution in brain of TA2 mouse bearing MA891 xenograft after 2 hrs; assay type: ADME, organism-based; conditions: read-out: Drug uptake
[17] = Ratio of uptake in tumor to blood of TA2 mouse bearing MA891 xenograft after 2 hrs; assay type: ADME
[18] = Biodistribution in lung of TA2 mouse bearing MA891 xenograft after 30 mins; assay type: ADME, organism-based; conditions: read-out: Drug uptake
[19] = Biodistribution in spleen of TA2 mouse bearing MA891 xenograft after 2 hrs; assay type: ADME, organism-based; conditions: read-out: Drug uptake
[20] = Biodistribution in stomach of TA2 mouse bearing MA891 xenograft after 2 hrs; assay type: ADME, organism-based; conditions: read-out: Drug uptake
[21] = Biodistribution in liver of TA2 mouse bearing MA891 xenograft after 4 hrs; assay type: ADME, organism-based; conditions: read-out: Drug uptake
[22] = Biodistribution in kidney of TA2 mouse bearing MA891 xenograft after 30 mins; assay type: ADME, organism-based; conditions: read-out: Drug uptake
[23] = Biodistribution in brain of TA2 mouse bearing MA891 xenograft after 4 hrs; assay type: ADME, organism-based; conditions: read-out: Drug uptake
[24] = Biodistribution in brain of TA2 mouse bearing MA891 xenograft after 30 mins; assay type: ADME, organism-based; conditions: read-out: Drug uptake
[25] = Biodistribution in stomach of TA2 mouse bearing MA891 xenograft after 4 hrs; assay type: ADME, organism-based; conditions: read-out: Drug uptake
[26] = Biodistribution in liver of TA2 mouse bearing MA891 xenograft after 30 mins; assay type: ADME, organism-based; conditions: read-out: Drug uptake
[27] = Biodistribution in tumor of TA2 mouse bearing MA891 xenograft after 4 hrs; assay type: ADME, organism-based; conditions: read-out: Drug uptake
[28] = Biodistribution in tumor of TA2 mouse bearing MA891 xenograft after 30 mins; assay type: ADME, organism-based; conditions: read-out: Drug uptake
[29] = Biodistribution in liver of TA2 mouse bearing MA891 xenograft after 2 hrs; assay type: ADME, organism-based; conditions: read-out: Drug uptake
[30] = Biodistribution in blood of TA2 mouse bearing MA891 xenograft after 2 hrs; assay type: ADME, organism-based; conditions: read-out: Drug uptake
[31] = Biodistribution in tumor of TA2 mouse bearing MA891 xenograft after 2 hrs; assay type: ADME, organism-based; conditions: read-out: Drug uptake
[32] = Ratio of uptake in tumor to muscle of TA2 mouse bearing MA891 xenograft after 2 hrs; assay type: ADME; conditions: in vivo
[33] = Ratio of uptake in tumor to […] of TA2 mouse bearing MA891 xenograft after 4 hrs; assay type: ADME; conditions: in vivo
[34] = Biodistribution in spleen of TA2 mouse bearing MA891 xenograft after 4 hrs; assay type: ADME, organism-based; conditions: read-out: Drug uptake
[35] = Biodistribution in lung of TA2 mouse bearing MA891 xenograft after 4 hrs; assay type: ADME, organism-based; conditions: read-out: Drug uptake
[36] = Biodistribution in heart of TA2 mouse bearing MA891 xenograft after 4 hrs; assay type: ADME, organism-based; conditions: read-out: Drug uptake
[37] = Biodistribution in intestine of TA2 mouse bearing MA891 xenograft after 2 hrs; assay type: ADME, organism-based; conditions: read-out: Drug uptake
[38] = Biodistribution in kidney of TA2 mouse bearing MA891 xenograft after 2 hrs; assay type: ADME, organism-based; conditions: read-out: Drug uptake
[39] = Biodistribution in muscle of TA2 mouse bearing MA891 xenograft after 30 mins; assay type: ADME, organism-based, Muscle tissue; conditions: read-out: Drug uptake
[40] = Biodistribution in blood of TA2 mouse bearing MA891 xenograft after 30 mins; assay type: ADME, organism-based; conditions: read-out: Drug uptake

Compound: CSCC(=O)NC1[C@H](O)O[C@H](CO)[C@@H](O)[C@@H]1O (stereo not given in full)
- tissue uptake at 4 h [1]: 13.2 %ID/g
- tissue uptake at 4 h [2]: 1.29 %ID/g
- tissue uptake at 0.5 h [3]: 3.69 %ID/g
- tissue uptake at 0.5 h [4]: 1.81 %ID/g
- Ratio [5]: 3.2
- tissue uptake at 2 h [6]: 0.57 %ID/g
- tissue uptake at 0.5 h [7]: 0.9 %ID/g
- tissue uptake at 2 h [8]: 1.48 %ID/g
- tissue uptake at 4 h [9]: 0.33 %ID/g
- tissue uptake at 4 h [10]: 1.29 %ID/g
- Ratio [11]: 0.47
- tissue uptake at 0.5 h [12]: 2.24 %ID/g
- tissue uptake at 2 h [13]: 0.45 %ID/g
- logP [14]: -2.92
- Ratio [15]: 3.29
- tissue uptake at 2 h [16]: 0.07 %ID/g
- Kp at 2 h [17]: 0.59
- tissue uptake at 0.5 h [18]: 2.73 %ID/g
- tissue uptake at 2 h [19]: 1.36 %ID/g
- tissue uptake at 2 h [20]: 3.17 %ID/g
- tissue uptake at 4 h [21]: 4.18 %ID/g
- tissue uptake at 0.5 h [22]: 8.8 %ID/g
- tissue uptake at 4 h [23]: 0.04 %ID/g
- tissue uptake at 0.5 h [24]: 0.11 %ID/g
- tissue uptake at 4 h [25]: 1.41 %ID/g
- tissue uptake at 0.5 h [26]: 5.9 %ID/g
- tissue uptake at 4 h [27]: 1.06 %ID/g
- tissue uptake at 0.5 h [28]: 1.53 %ID/g
- tissue uptake at 2 h [29]: 4.75 %ID/g
- tissue uptake at 2 h [30]: 2.22 %ID/g
- tissue uptake at 2 h [31]: 1.25 %ID/g
- Ratio [32]: 2.85
- Ratio [33]: 0.82
- tissue uptake at 4 h [34]: 1.6 %ID/g
- tissue uptake at 4 h [35]: 0.98 %ID/g
- tissue uptake at 4 h [36]: 0.38 %ID/g
- tissue uptake at 2 h [37]: 4.07 %ID/g
- tissue uptake at 2 h [38]: 10.8 %ID/g
- tissue uptake at 0.5 h [39]: 0.51 %ID/g
- tissue uptake at 0.5 h [40]: 3.32 %ID/g
